Results published in the supplement of paper PMC13380429.

Tests used:
Conditions in all cases: 72 h
[1] = test system: Vero E6; assay: drug sensitivity score (DSS) for viability; higher = more toxic; extreme values may be limits of the assay
[2] = test system: HepG2; assay: as above
[3] = test system: U2OS; assay: as above
[4] = test system: Calu-3; assay: as above
[5] = test system: Vero E6; assay: relative viability EC50 (midpoint between 100% and the lowest measured viability); higher = less toxic
[6] = test system: U2OS; assay: as above
[7] = test system: Caco-2; assay: drug sensitivity score (DSS) for viability; higher = more toxic; extreme values may be limits of the assay
[8] = test system: Vero E6; assay: cell viability relative to DMSO; higher = less toxic
[9] = test system: HepG2; assay: as above
[10] = test system: Caco-2; assay: as above
[11] = test system: U2OS; assay: as above
[12] = test system: Calu-3; assay: as above
[13] = test system: HepG2; assay: relative viability EC50 (midpoint between 100% and the lowest measured viability); higher = less toxic
[14] = test system: Caco-2; assay: as above

SMILES | drug sensitivity score [1] | drug sensitivity score [2] | drug sensitivity score [3] | drug sensitivity score [4] | relative viability EC50 [5] [µM] | relative viability EC50 [6] [µM] | drug sensitivity score [7] | cell viability ([8]; 1 nM) [%] | cell viability ([8]; 10 nM) [%] | cell viability ([8]; 100 nM) [%] | cell viability ([8]; 1000 nM) [%] | cell viability ([8]; 10000 nM) [%] | cell viability ([9]; 1 nM) [%] | cell viability ([9]; 10 nM) [%] | cell viability ([9]; 100 nM) [%] | cell viability ([9]; 1000 nM) [%] | cell viability ([9]; 10000 nM) [%] | cell viability ([10]; 1 nM) [%] | cell viability ([10]; 10 nM) [%] | cell viability ([10]; 100 nM) [%] | cell viability ([10]; 1000 nM) [%] | cell viability ([10]; 10000 nM) [%] | cell viability ([11]; 1 nM) [%] | cell viability ([11]; 10 nM) [%] | cell viability ([11]; 100 nM) [%] | cell viability ([11]; 1000 nM) [%] | cell viability ([11]; 10000 nM) [%] | cell viability ([12]; 1 nM) [%] | cell viability ([12]; 10 nM) [%] | cell viability ([12]; 100 nM) [%] | cell viability ([12]; 1000 nM) [%] | cell viability ([12]; 10000 nM) [%] | relative viability EC50 [13] [µM] | relative viability EC50 [14] [µM]
CCN1CCCC1CNC(=O)c1cc(S(N)(=O)=O)ccc1OC (centres undefined) [sulpiride] | 0 | 0 | 0 | 0 | – | – | – | – | – | – | – | – | – | – | – | – | – | – | – | – | – | – | – | – | – | – | – | – | – | – | – | – | – | –
Nc1ncn([C@@H]2O[C@H](CO)[C@@H](O)[C@H]2O)c(=O)n1 [azacitidine] | 5 | 3.1 | 0 | 3.5 | 1.98 | > 10 | 2.6 | 97.3 | 102 | 95.9 | 90.5 | 37.3 | 97.9 | 99.7 | 95.9 | 94.1 | 57.8 | 87.3 | 104 | 96.1 | 90.1 | 67.9 | 98 | 102 | 98.6 | 102 | 98.4 | 102 | 90.9 | 88.5 | 87.2 | 64 | – | –
COc1ccccc1N1CCN(CCCCNC(=O)c2ccc3ccccc3c2)CC1 [BP-897] | 0 | 0 | 0 | 0.8 | – | – | – | – | – | – | – | – | – | – | – | – | – | – | – | – | – | – | – | – | – | – | – | – | – | – | – | – | – | –
CC1=NN(c2ccc(C)c(C)c2)C(=O)/C1=N\Nc1cccc(-c2cccc(C(=O)O)c2)c1O [eltrombopag] | 0.8 | 3.4 | 1.2 | 1.5 | > 10 | – | 0 | 97.6 | 93.5 | 91.9 | 90.7 | 82.9 | 97.4 | 92 | 105 | 96.8 | 44.5 | 93.5 | 89.8 | 93.5 | 97.9 | 82.1 | 95.6 | 102 | 100 | 101 | 71.1 | 114 | 102 | 100 | 96.7 | 74.3 | 2.71 | > 10
O=C(NO)c1ccc2[nH]c(=O)c(CCCc3ccccc3)nc2c1 [TCS-2210] | 0 | 4.1 | 2.4 | 4.3 | > 10 | – | 0 | 87.5 | 96.1 | 89 | 98.4 | 101 | 108 | 96.5 | 100 | 94.7 | 39.9 | 94.2 | 95.8 | 101 | 94.8 | 96.4 | 99.1 | 96.3 | 102 | 94.4 | 66.8 | 136 | 93.7 | 98 | 78.4 | 62 | 2.44 | > 10
COc1cc(C(=O)N2CCC(N3CCN(C)CC3)CC2)ccc1Nc1ncc2c(n1)N(C)c1ccccc1C(=O)N2C [LRRK2-IN-1] | 5.7 | 3.5 | 4.2 | 4.4 | 2.64 | – | 2.7 | 99.5 | 100 | 94 | 94.3 | 13.5 | 99.4 | 99.4 | 98.8 | 103 | 31.6 | 96 | 87.2 | 98.8 | 91.7 | 67.8 | 101 | 95.9 | 98.5 | 90.6 | 50.1 | 102 | 89.2 | 102 | 88.1 | 52.2 | 3.42 | –
O=c1ccn([C@@H]2O[C@H](CO)[C@@H](O)[C@H]2O)c(=O)[nH]1 [uridine] | 0 | 0.8 | 0 | 0 | – | – | – | – | – | – | – | – | – | – | – | – | – | – | – | – | – | – | – | – | – | – | – | – | – | – | – | – | – | –
CCCOc1ccc2[nH]c(NC(=O)OC)nc2c1 [oxibendazole] | 7.9 | 2.1 | 2.6 | 2.1 | 0.54 | 3.4 | 2.4 | 95.1 | 96.3 | 90.2 | 63.8 | 41.9 | 91.1 | 95.8 | 94.6 | 103 | 54.4 | 94.8 | 93.7 | 107 | 96.4 | 63.1 | 101 | 95.2 | 101 | 102 | 47.5 | 102 | 97.2 | 97.1 | 97.8 | 63 | – | –
